The nature of this series: Caco-2 permeability assay. In kind it is in vitro ADME. The conditions noted are these: human. Here is the method:
The apparent permeability coefficient (Papp) of the analytical drug was determined by liquid chromatography-tandem mass spectrometry (LC/MS/MS) through a Caco-2 cell model.
The transfer rate of drug from the apical end to the basal end was determined. 108 μL of HBSS (25 mM HEPES, pH 7.4) containing 10 μM test compound was added to the apical end of the upper chamber of Transwell (purchased from Corning) containing Caco-2 cells (purchased from ATCC) at a density of 6.86×10^5 cells/cm^2, and meanwhile, 8 μL of the sample was added, as an initial dosing-end sample (A-B), to a new 96-well plate to which 72 μL of HBSS (25 mM HEPES, pH 7.4) and 240 μL of acetonitrile (containing 100 nM alprazolam, 200 nM caffeine and 100 nM tolbutamide) had been added, and the plate was vortexed at 1000 rpm for 10 min. 300 μL of HBSS (25 mM HEPES, pH 7.4) was added to the basal end.
The transfer rate of drug from the basal end to the apical end was determined. 308 μL of HBSS (25 mM HEPES, pH 7.4) containing 10 μM test compound was added to wells of the basal end of the plate, and meanwhile, 8 μL of the sample was added, as an initial dosing-end sample (B-A), to a new 96-well plate to which 72 μL of HBSS (25 mM HEPES, pH 7.4) and 240 μL of acetonitrile (containing 100 nM alprazolam, 200 nM caffeine and 100 nM tolbutamide) had been added. The plate was vortexed at 1000 rpm for 10 min, and 100 μL of HBSS (25 mM HEPES, pH 7.4) was added to the apical end.
The transfer rate from the apical end to the basal end and the transfer rate from the basal end to the apical end need to be determined simultaneously.
At the end of the transfer cycle, 8 μL of the sample was taken from the dosing end (apical end of A-B flow and basal end of B-A flow) and added to 72 μL of HBSS (25 mM HEPES, pH 7.4) and 240 μL of acetonitrile (containing 100 nM alprazolam, 200 nM caffeine and 100 nM tolbutamide), and the mixture was added to a new 96-well plate. 80 μL of the liquid was taken directly from each of the basal end of the A-B flow and the apical end of the B-A flow, and added together with 240 μL of acetonitrile (containing 100 nM alprazolam, 200 nM caffeine and 100 nM tolbutamide) to a new 96-well plate. The plates were vortexed at 1000 rpm for 10 min. The samples were centrifuged at 4000 rpm for 30 min. 100 μL of the supernatant was transferred to a new 96-well plate. All samples were analyzed by LC-MS/MS with 100 μL of pure water.
Data were calculated using Microsoft Excel and peak areas were calculated from the chromatograms. The apparent permeability coefficient (Papp) is in cm/s and is calculated using the following formula: […]
Papp is apparent permeability (cm/s×10^−6);
The outflow ratio can be determined by the following equation: […]
A general note: Caco-2 cells form a polarised layer with tight junctions and transporters.

The Papp A→B is the apparent permeability from the apical to the basolateral side of a cell layer. Low values mean poor permeation, high ones ready permeation.

For the molecule `CC(=O)N1CCO[C@@H](Cn2c(-c3c(F)cc(N4CCCC4=O)cc3Cl)nc3cc(C)ccc32)C1` [Compound 4, (S)-1-(4-(1-((4-acetylmorpholin-2-yl)methyl)-5-methyl-1H-benzo[d]imidazol-2-yl)-3-chloro-5-fluorophenyl)pyrrolidin-2-one], the Papp A→B at 10 μM (Caco-2, 10 μM test compound, apical to basal, pH 7.4) worked out at 8.1 ×10⁻⁶ cm/s. In addition, the efflux ratio at 10 μM (Caco-2, Papp (B-A)/Papp (A-B), read-out: Outflow ratio) came out at 3.8.

Values taken from US20230250095A1, “BENZIMIDAZOLE DERIVATIVES, PREPARATION METHOD THEREFOR AND MEDICAL USE THEREOF” (TUOJIE BIOTECH(SHANGHAI) CO., LTD., priority 2020, published 2023).
